Reference: PubChem BioAssay AID1963850 (Molecular Pharmacology Branch, DTP, NCI, 2024)

Test system: 192522-019-R-J2-PDC complex tumor spheroid viability
Experiment: Anticancer human tumor 192522-019-R-J2-PDC patient-derived colon adenocarcinoma cell line growth inhibition [POLQ]
Conditions: for IC50: curve of first compound; for viability, T/C: stronger effect = lower value
In short: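 PDC + HUVEC + MSC complex spheroids; POLQ inhibitors ± partner drugs; top conc. at/near clinical Cmax, else 10 microM (SN-38 1 microM), half-log dilutions; 37 degrees C, 5% CO2.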

[1] = second compound 0.0316 µM, first compound 0.0316 µM
[2] = second compound 0.0316 µM, first compound 0.1 µM
[3] = second compound 0.0316 µM, first compound 0.316 µM
[4] = second compound 0.0316 µM, first compound 1 µM
[5] = second compound 0.0316 µM, first compound 3.16 µM
[6] = second compound 0.0316 µM, first compound 10 µM
[7] = second compound 0.1 µM, first compound 0.0316 µM
[8] = second compound 0.1 µM, first compound 0.1 µM
[9] = second compound 0.1 µM, first compound 0.316 µM
[10] = second compound 0.1 µM, first compound 1 µM
[11] = second compound 0.1 µM, first compound 3.16 µM
[12] = second compound 0.1 µM, first compound 10 µM
[13] = second compound 0.316 µM, first compound 0.0316 µM
[14] = second compound 0.316 µM, first compound 0.1 µM
[15] = second compound 0.316 µM, first compound 0.316 µM
[16] = second compound 0.316 µM, first compound 1 µM
[17] = second compound 0.316 µM, first compound 3.16 µM
[18] = second compound 0.316 µM, first compound 10 µM
[19] = second compound 1 µM, first compound 0.0316 µM
[20] = second compound 1 µM, first compound 0.1 µM
[21] = second compound 1 µM, first compound 0.316 µM
[22] = second compound 1 µM, first compound 1 µM
[23] = second compound 1 µM, first compound 3.16 µM
[24] = second compound 1 µM, first compound 10 µM
[25] = second compound 3.16 µM, first compound 0.0316 µM
[26] = second compound 3.16 µM, first compound 0.1 µM
[27] = second compound 3.16 µM, first compound 0.316 µM
[28] = second compound 3.16 µM, first compound 1 µM
[29] = second compound 3.16 µM, first compound 3.16 µM
[30] = second compound 3.16 µM, first compound 10 µM
[31] = second compound 10 µM, first compound 0.0316 µM
[32] = second compound 10 µM, first compound 0.1 µM
[33] = second compound 10 µM, first compound 0.316 µM
[34] = second compound 10 µM, first compound 1 µM
[35] = second compound 10 µM, first compound 3.16 µM
[36] = second compound 10 µM, first compound 10 µM
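Further: spheroids exposed to drugs for seven days before reading.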
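Wherever viability, T/C is given: 100% = DMSO vehicle control viability in luminescence.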

Q: For `O=C(Nc1ccc(O)c(NS(=O)(=O)c2ccc(F)cc2)c1)c1ccc(-c2ccccc2)cc1` + Cc1cccc(N(C)C(=O)C2C(O)CCN2c2nc(C)cc(C(F)(F)F)c2C#N)c1, which IC50 (second compound 0.0316 µM) is on record?
A: > 10 µM

Q: And the IC50 (second compound 0.1 µM)?
A: > 10 µM

Q: And the IC50 (second compound 0.316 µM)?
A: > 10 µM

Q: And the IC50 (second compound 1 µM)?
A: > 10 µM

Q: And the IC50 (second compound 3.16 µM)?
A: > 10 µM

Q: What about the IC50 (second compound 10 µM) of the same molecule?
A: > 10 µM

Q: And the viability, T/C [1]?
A: 94.8%

Q: And the viability, T/C [2]?
A: 97.5%

Q: And the viability, T/C [3]?
A: 98.2%

Q: And the viability, T/C [4]?
A: 96.3%

Q: What about the viability, T/C [5] of the same molecule?
A: 106%

Q: And the viability, T/C [6]?
A: 109%

Q: And the viability, T/C [7]?
A: 101%

Q: What about the viability, T/C [8] of the same molecule?
A: 98.5%

Q: What about the viability, T/C [9] of the same molecule?
A: 99.7%

Q: What about the viability, T/C [10] of the same molecule?
A: 90.4%

Q: What about the viability, T/C [11] of the same molecule?
A: 101%

Q: What about the viability, T/C [12] of the same molecule?
A: 94.8%

Q: What about the viability, T/C [13] of the same molecule?
A: 96.9%

Q: And the viability, T/C [14]?
A: 96.4%

Q: What about the viability, T/C [15] of the same molecule?
A: 93.5%

Q: What about the viability, T/C [16] of the same molecule?
A: 101%

Q: And the viability, T/C [17]?
A: 103%

Q: And the viability, T/C [18]?
A: 101%

Q: And the viability, T/C [19]?
A: 113%

Q: What about the viability, T/C [20] of the same molecule?
A: 106%

Q: And the viability, T/C [21]?
A: 101%

Q: What about the viability, T/C [22] of the same molecule?
A: 102%

Q: And the viability, T/C [23]?
A: 98.9%

Q: What about the viability, T/C [24] of the same molecule?
A: 103%

Q: What about the viability, T/C [25] of the same molecule?
A: 103%

Q: And the viability, T/C [26]?
A: 104%

Q: What about the viability, T/C [27] of the same molecule?
A: 106%

Q: What about the viability, T/C [28] of the same molecule?
A: 100%

Q: What about the viability, T/C [29] of the same molecule?
A: 108%

Q: And the viability, T/C [30]?
A: 105%

Q: And the viability, T/C [31]?
A: 114%

Q: And the viability, T/C [32]?
A: 100%

Q: And the viability, T/C [33]?
A: 106%

Q: And the viability, T/C [34]?
A: 97.9%

Q: And the viability, T/C [35]?
A: 99.8%

Q: And the viability, T/C [36]?
A: 98.5%

Q: Which results are given for `CC1COCCN1c1cc(C2(S(C)(=N)=O)CC2)nc(-c2ccnc3[nH]ccc23)n1` (stereo unspecified) + COC1C(OC(N)=O)C(O)C(Oc2ccc3c(O)c(NC(=O)c4ccc(O)c(CC=C(C)C)c4)c(=O)oc3c2C)OC1(C)C?
A: IC50 (second compound 0.0316 µM): 4.72 µM; IC50 (second compound 0.1 µM): 4.58 µM; IC50 (second compound 0.316 µM): 3.33 µM; IC50 (second compound 1 µM): 5.31 µM; IC50 (second compound 3.16 µM): 5.42 µM; IC50 (second compound 10 µM): 5.18 µM; viability, T/C [1]: 108%; viability, T/C [2]: 94.3%; viability, T/C [3]: 99.6%; viability, T/C [4]: 97.3%; viability, T/C [5]: 61.3%; viability, T/C [6]: 28.7%; viability, T/C [7]: 118%; viability, T/C [8]: 99%; viability, T/C [9]: 103%; viability, T/C [10]: 95.4%; viability, T/C [11]: 56.2%; viability, T/C [12]: 36.1%; viability, T/C [13]: 103%; viability, T/C [14]: 99.2%; viability, T/C [15]: 108%; viability, T/C [16]: 95.8%; viability, T/C [17]: 51%; viability, T/C [18]: 31.9%; viability, T/C [19]: 101%; viability, T/C [20]: 103%; viability, T/C [21]: 99%; viability, T/C [22]: 97.3%; viability, T/C [23]: 63.1%; viability, T/C [24]: 34%; viability, T/C [25]: 102%; viability, T/C [26]: 109%; viability, T/C [27]: 104%; viability, T/C [28]: 91.8%; viability, T/C [29]: 60.9%; viability, T/C [30]: 37.8%; viability, T/C [31]: 104%; viability, T/C [32]: 103%; viability, T/C [33]: 114%; viability, T/C [34]: 95.7%; viability, T/C [35]: 62.9%; viability, T/C [36]: 33.2%

Q: How did the IC50 (second compound 0.0316 µM) turn out when `COc1cc2cc(C(=O)CCC(=O)O)sc2cc1OC` + Nc1ccc(C#CCN(C(=O)Cc2ncc(C(F)(F)F)cc2C(F)(F)F)c2ccc(F)cc2)nn1 was run?
A: > 10 µM

Q: What about the IC50 (second compound 0.1 µM) of the same molecule?
A: > 10 µM

Q: What about the IC50 (second compound 0.316 µM) of the same molecule?
A: > 10 µM

Q: And the IC50 (second compound 1 µM)?
A: > 10 µM

Q: What about the IC50 (second compound 3.16 µM) of the same molecule?
A: > 10 µM

Q: And the IC50 (second compound 10 µM)?
A: > 10 µM

Q: And the viability, T/C [1]?
A: 102%

Q: What about the viability, T/C [2] of the same molecule?
A: 105%

Q: What about the viability, T/C [3] of the same molecule?
A: 95.4%

Q: And the viability, T/C [4]?
A: 99.6%

Q: And the viability, T/C [5]?
A: 105%

Q: What about the viability, T/C [6] of the same molecule?
A: 89%

Q: And the viability, T/C [7]?
A: 102%

Q: And the viability, T/C [8]?
A: 92.1%

Q: What about the viability, T/C [9] of the same molecule?
A: 97.9%

Q: What about the viability, T/C [10] of the same molecule?
A: 101%

Q: What about the viability, T/C [11] of the same molecule?
A: 99.4%

Q: What about the viability, T/C [12] of the same molecule?
A: 87.3%

Q: What about the viability, T/C [13] of the same molecule?
A: 102%

Q: What about the viability, T/C [14] of the same molecule?
A: 102%

Q: What about the viability, T/C [15] of the same molecule?
A: 105%

Q: What about the viability, T/C [16] of the same molecule?
A: 100%

Q: What about the viability, T/C [17] of the same molecule?
A: 93.8%

Q: And the viability, T/C [18]?
A: 91.8%

Q: And the viability, T/C [19]?
A: 102%

Q: What about the viability, T/C [20] of the same molecule?
A: 98.5%

Q: What about the viability, T/C [21] of the same molecule?
A: 100%

Q: And the viability, T/C [22]?
A: 98.8%

Q: And the viability, T/C [23]?
A: 104%

Q: And the viability, T/C [24]?
A: 103%

Q: And the viability, T/C [25]?
A: 103%

Q: And the viability, T/C [26]?
A: 103%

Q: What about the viability, T/C [27] of the same molecule?
A: 104%

Q: What about the viability, T/C [28] of the same molecule?
A: 93.3%

Q: What about the viability, T/C [29] of the same molecule?
A: 103%

Q: What about the viability, T/C [30] of the same molecule?
A: 103%

Q: And the viability, T/C [31]?
A: 109%

Q: And the viability, T/C [32]?
A: 97.4%

Q: What about the viability, T/C [33] of the same molecule?
A: 108%

Q: What about the viability, T/C [34] of the same molecule?
A: 103%

Q: What about the viability, T/C [35] of the same molecule?
A: 114%

Q: What about the viability, T/C [36] of the same molecule?
A: 102%
